Key:
[1] = cited from earlier work
guinea pigs = experiment: Hypersensitivity test in animals; assay type: in vivo
Experimental: 18 healthy guinea pigs weighed 250-350 g were divided into 3 groups (a test group, a negative control group, and a positive control group) of 6 animals each at random. […] In 15 min after the injection, the hypersensitive responses of the injected guinea pigs were observed. A positive response was determined if two or more of piloerection, dyspnea, or 3 cough sounds, or one of twitch, collapse or death appeared.

Row | Molecule | Solubility in organic solvents ([1]; organic solvents (such as methanol, ethanol, or acetone)) | Solubility in water ([1]; water) | Occurrence of hypersensitive response (guinea pigs; guinea pigs, n = 6, intraperitoneal sensitization, intravenous boost at days 14 and 21, animals responding/total) | Hypersensitive response of positive control (in words) (guinea pigs; in 1 min after two times of intravenous administration, 6 guinea pigs)
1 | C=CC[C@@H]1/C=C(\C)C[C@H](C)C[C@H](OC)[C@H]2O[C@@](O)(C(=O)C(=O)N3CCCC[C@H]3C(=O)O[C@H](/C(C)=C/[C@@H]3CC[C@@H](O)[C@H](OC)C3)[C@H](C)[C@@H](O)CC1=O)[C@H](C)C[C@@H]2OC (relative stereo) [tacrolimus, [3S—[3R*[E(1S*,3S*,4S*)],4S*,5R*,8S*,9E,12R*,14R*,15S*,16R*,18S*,19S*,26aR*]]-5,6,8,11,12,13,14,15,16,17,18,19,24,25,26a-hexa-decahydro-5,19-dihydroxy-3-[2-(4-hydroxy-3-methoxycyclohexyl)-1-methylethenyl]-14,16-dimethoxy-4,10,12,18-tetramethyl-8-(2-propenyl)-15,19-epoxy-3H-pyrido[2,1-c][1,4]oxazacyclotricosene-1,7,20,21(4H,23H)-tetrone, monohydrate] | freely soluble | practically insoluble | – | –
2 | 10% ovalbumin solution: 10% ovalbumin solution, positive control of the hypersensitivity test (protein, UniProt P01012 2-386, looked up) Ovalbumin: GSIGAASMEFCFDVFKELKVHHANENIFYCPIAIMSALAMVYLGAKDSTRTQINKVVRFDKLPGFGDSIEAQCGTSVNVHSSLRDILNQITKPNDVYSFSLASRLYAEERYPILPEYLQCVKELYRGGLEPINFQTAADQARELINSWVESQTNGIIRNVLQPSSVDSQTAMVLVNAIVFKGLWEKAFKDEDTQAMPFRVTEQESKPVQMMYQIGLFRVASMASEKMKILELPFASGTMSMLVLLPDEVSGLEQLESIINFEKLTEWTSSNVMEERKIKVYLPRMKMEEKYNLTSVLMAMGITDVFSSSANLSGISSAESLKISQAVHAAHAEINEAGREVVGSAEAGVDAASVSEEFRADHPFLFCIKHIATNAVLFFGRCVSP | – | – | 6/6 | cough, respiratory depression, and twitch to death occur to all of the 6 guinea pigs
